Experimental data taken from paper PMC5686395, “Eukaryotic-type serine/threonine kinase mediated phosphorylation at Thr^169 perturbs mycobacterial guanylate kinase activity” (Bioscience Reports, 2017).

Tests used:
PknA-core (PknA-338) = PknA-core (PknA-338) (Mycobacterium tuberculosis, UniProt P9WI83)
PknB = PknB (Mycobacterium tuberculosis, UniProt P9WI81)
Sequence of PknB (P9WI81 2-626): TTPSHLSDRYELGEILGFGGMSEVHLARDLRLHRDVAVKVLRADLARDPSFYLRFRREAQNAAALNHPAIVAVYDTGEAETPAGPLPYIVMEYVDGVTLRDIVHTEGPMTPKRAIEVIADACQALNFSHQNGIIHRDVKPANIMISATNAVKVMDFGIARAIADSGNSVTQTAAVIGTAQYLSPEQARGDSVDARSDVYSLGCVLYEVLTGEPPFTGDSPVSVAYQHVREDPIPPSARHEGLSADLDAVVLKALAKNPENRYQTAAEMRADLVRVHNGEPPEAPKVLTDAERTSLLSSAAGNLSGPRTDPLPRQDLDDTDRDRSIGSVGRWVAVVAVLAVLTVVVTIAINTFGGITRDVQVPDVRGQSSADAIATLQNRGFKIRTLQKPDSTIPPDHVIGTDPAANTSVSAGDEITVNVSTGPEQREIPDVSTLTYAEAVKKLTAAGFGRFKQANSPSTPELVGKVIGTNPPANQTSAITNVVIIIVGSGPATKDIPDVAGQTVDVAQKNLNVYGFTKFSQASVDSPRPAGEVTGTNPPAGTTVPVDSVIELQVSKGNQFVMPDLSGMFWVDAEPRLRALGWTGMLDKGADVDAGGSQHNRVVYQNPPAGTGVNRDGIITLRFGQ

Sequence of PknA-core (PknA-338) (P9WI83 1-338): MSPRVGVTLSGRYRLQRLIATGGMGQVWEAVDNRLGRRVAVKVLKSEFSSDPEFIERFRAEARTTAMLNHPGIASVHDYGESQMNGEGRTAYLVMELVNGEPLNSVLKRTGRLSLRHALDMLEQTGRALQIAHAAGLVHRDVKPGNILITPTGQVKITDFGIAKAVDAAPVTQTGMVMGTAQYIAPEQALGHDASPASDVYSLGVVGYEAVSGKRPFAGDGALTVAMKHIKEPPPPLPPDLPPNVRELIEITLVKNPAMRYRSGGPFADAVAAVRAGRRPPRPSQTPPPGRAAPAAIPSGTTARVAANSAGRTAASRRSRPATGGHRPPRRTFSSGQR

Compound: Nc1ncnc2c1ncn2[C@@H]1O[C@H](COP(=O)(O)OP(=O)(O)OP(=O)(O)O)[C@@H](O)[C@H]1O [[γ-32P] ATP]
- in vitro kinase assay, SDS/PAGE and autoradiography (PknA-core (PknA-338)): its incubation with PknA exhibited phosphorylation
- in vitro kinase assay, SDS/PAGE and autoradiography (PknB): PknB, another essential mycobacterial kinase, instead of PknA in the assay yielded weak p-mGmk
